Source: patent publication US8952024B2, “Herbicidal pyrimidone derivatives” (E I du Pont de Nemours and Company, priority 2009, dated 2015)

How the values were obtained:
Assay type in all cases: in vivo
Conditions in all cases: Postemergence
[1] = test system: velvetleaf (Abutilon theophrasti); assay: Test B pre-/postemergence plant response
Summary of the method: (§1)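 Steps: sow seed in loam–sand soil and spray preemergence, or grow plants in peat-based medium to 1–4 leaves (2–18 cm) and spray postemergence; formulation is non-phytotoxic solvent plus surfactant; hold in greenhouse 13–15 days; score visually vs controls, 0 = no effect, 100 = complete control.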

[2] = test system: woolly cupgrass (Eriochloa villosa); assay: Test B pre-/postemergence plant response
Summary of the method: as §1

[3] = test system: ragweed (common ragweed, Ambrosia elatior); assay: Test B pre-/postemergence plant response
Summary of the method: as §1

[4] = test system: johnsongrass (Sorghum halepense); assay: Test B pre-/postemergence plant response
Summary of the method: as §1

[5] = test system: blackgrass (Alopecurus myosuroides); assay: Test B pre-/postemergence plant response
Summary of the method: as §1

soybean (Glycine max) = assay: Test B pre-/postemergence plant response
Summary of the method: as §1

[6] = test system: bermudagrass (Cynodon dactylon); assay: Test B pre-/postemergence plant response
Summary of the method: as §1

[7] = test system: yellow nutsedge (Cyperus esculentus); assay: Test B pre-/postemergence plant response
Summary of the method: as §1

corn (Zea mays) = assay: Test B pre-/postemergence plant response
Summary of the method: as §1

[8] = test system: large crabgrass (Digitaria sanguinalis); assay: Test B pre-/postemergence plant response
Summary of the method: as §1

[9] = test system: Surinam grass (Brachiaria decumbens); assay: Test B pre-/postemergence plant response
Summary of the method: as §1

wild oat (Avena fatua) = assay: Test B pre-/postemergence plant response
Summary of the method: as §1

[10] = test system: lambsquarters (Chenopodium album); assay: Test B pre-/postemergence plant response
Summary of the method: as §1

[11] = test system: Italian ryegrass (Lolium multiflorum); assay: Test B pre-/postemergence plant response
Summary of the method: as §1

[12] = test system: windgrass (Apera spica-venti); assay: Test B postemergence plant response
Summary of the method: (§2)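 Plants at the 1- to 4-leaf stage (2 to 18 cm tall), grown in pots of peat moss/vermiculite medium with wetting agent and starter nutrients, received postemergence applications of test chemicals. After 13 to 15 days in a greenhouse, injury was rated visually against untreated controls on a 0 (no effect) to 100 (complete control) scale.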

[13] = test system: winter barley (Hordeum vulgare); assay: Test B postemergence plant response
Summary of the method: as §2

[14] = test system: chickweed (Stellaria media); assay: Test B postemergence plant response
Summary of the method: as §2

[15] = test system: canarygrass (Phalaris minor); assay: Test B postemergence plant response
Summary of the method: as §2

[16] = 31 g ai/ha, 0 to 100 scale (0 no effect, 100 complete control)
[17] = 250 g ai/ha, scale 0 to 100 (0 no effect, 100 complete control), 13 to 15 days
[18] = 62 g ai/ha, scale 0 to 100 (0 no effect, 100 complete control)
[19] = 125 g ai/ha, scale 0 to 100 (0 no effect, 100 complete control)

CCCn1c(-c2ccccc2)ncc(C(=O)C2=C(O)C3CCC(C3)C2=O)c1=O (centres unmarked) [Compound 226]
Plant response rating, Velvetleaf [1, 16]: 85 | Plant response rating, Velvetleaf [1, 17]: 98 | Plant response rating, Velvetleaf [1, 18]: 85 | Plant response rating, Cupgrass, Woolly [2, 16]: 80 | Plant response rating, Cupgrass, Woolly [2, 19]: 85 | Plant response rating, Cupgrass, Woolly [2, 17]: 95 | Plant response rating, Cupgrass, Woolly [2, 18]: 80 | Plant response rating, Ragweed [3, 16]: 80 | Plant response rating, Ragweed [3, 17]: 90 | Plant response rating, Ragweed [3, 18]: 85 | Plant response rating, Johnsongrass [4, 16]: 85 | Plant response rating, Johnsongrass [4, 19]: 100 | Plant response rating, Johnsongrass [4, 17]: 100 | Plant response rating, Johnsongrass [4, 18]: 85 | Plant response rating, Blackgrass [5, 16]: 5 | Plant response rating, Blackgrass [5, 19]: 40 | Plant response rating, Blackgrass [5, 17]: 60 | Plant response rating, Blackgrass [5, 18]: 30 | Plant response rating, Soybean (soybean (Glycine max); [16]): 95 | Plant response rating, Soybean (soybean (Glycine max); [17]): 100 | Plant response rating, Soybean (soybean (Glycine max); [18]): 98 | Plant response rating, Bermudagrass [6, 16]: 80 | Plant response rating, Bermudagrass [6, 19]: 85 | Plant response rating, Bermudagrass [6, 17]: 98 | Plant response rating, Bermudagrass [6, 18]: 80 | Plant response rating, Nutsedge, Yellow [7, 16]: 55 | Plant response rating, Nutsedge, Yellow [7, 19]: 70 | Plant response rating, Nutsedge, Yellow [7, 17]: 75 | Plant response rating, Nutsedge, Yellow [7, 18]: 65 | Plant response rating, Corn (corn (Zea mays); [16]): 75 | Plant response rating, Corn (corn (Zea mays); [19]): 98 | Plant response rating, Corn (corn (Zea mays); [17]): 98 | Plant response rating, Corn (corn (Zea mays); [18]): 80 | Plant response rating, Crabgrass, Large [8, 16]: 85 | Plant response rating, Crabgrass, Large [8, 19]: 95 | Plant response rating, Crabgrass, Large [8, 17]: 98 | Plant response rating, Crabgrass, Large [8, 18]: 85 | Plant response rating, Surinam Grass [9, 16]: 75 | Plant response rating, Surinam Grass [9, 17]: 85 | Plant response rating, Surinam Grass [9, 18]: 75 | Plant response rating, Oat, Wild (wild oat (Avena fatua); [16]): 25 | Plant response rating, Oat, Wild (wild oat (Avena fatua); [17]): 50 | Plant response rating, Oat, Wild (wild oat (Avena fatua); [18]): 30 | Plant response rating, Lambsquarters [10, 16]: 90 | Plant response rating, Lambsquarters [10, 19]: 95 | Plant response rating, Lambsquarters [10, 17]: 98 | Plant response rating, Lambsquarters [10, 18]: 90 | Plant response rating, Ryegrass, Italian [11, 16]: 0 | Plant response rating, Ryegrass, Italian [11, 17]: 20 | Plant response rating, Ryegrass, Italian [11, 18]: 0 | Plant response rating, Windgrass [12, 16]: 10 | Plant response rating, Windgrass [12, 17]: 85 | Plant response rating, Windgrass [12, 18]: 50 | Plant response rating, Barley [13, 16]: 10 | Plant response rating, Barley [13, 19]: 30 | Plant response rating, Barley [13, 17]: 60 | Plant response rating, Barley [13, 18]: 30 | Plant response rating, Chickweed [14, 16]: 75 | Plant response rating, Chickweed [14, 19]: 85 | Plant response rating, Chickweed [14, 17]: 95 | Plant response rating, Chickweed [14, 18]: 75 | Plant response rating, Canarygrass [15, 16]: 5 | Plant response rating, Canarygrass [15, 19]: 50 | Plant response rating, Canarygrass [15, 17]: 60 | Plant response rating, Canarygrass [15, 18]: 30
